Measurements published in PubChem BioAssay (NCI).
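Dose response: 5 concentrations. Exposure: 48 h. Format: 96-well plates. Endpoint: linear interpolation; highest concentration if not reached. GI50 marks 50% less growth. TGI marks complete inhibition of growth.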

Key:
Assay in all cases: NCI-60 cell line screen, 48 h
COLO 205 colon = test system: COLO 205 colon
K-562 leukemia = test system: K-562 leukemia
PC-3 prostate = test system: PC-3 prostate
TK-10 renal = test system: TK-10 renal
NCI-H226 lung = test system: NCI-H226 lung
NCI/ADR-RES ovarian = test system: NCI/ADR-RES ovarian
SK-OV-3 ovarian = test system: SK-OV-3 ovarian
UO-31 renal = test system: UO-31 renal
CCRF-CEM leukemia = test system: CCRF-CEM leukemia
SN12C renal = test system: SN12C renal

Row | SMILES | TGI (COLO 205 colon) | TGI (K-562 leukemia) | TGI (PC-3 prostate) | TGI (TK-10 renal) | TGI (NCI-H226 lung) | TGI (NCI/ADR-RES ovarian) | TGI (SK-OV-3 ovarian) | TGI (UO-31 renal) | TGI (CCRF-CEM leukemia) | TGI (SN12C renal) | GI50 (COLO 205 colon) | GI50 (PC-3 prostate) | GI50 (TK-10 renal) | GI50 (NCI-H226 lung) | GI50 (NCI/ADR-RES ovarian) | GI50 (SN12C renal) | GI50 (K-562 leukemia) | GI50 (SK-OV-3 ovarian) | GI50 (UO-31 renal) | GI50 (CCRF-CEM leukemia)
1 | Cc1ccc(S(=O)(=O)NCCCSCCN)cc1 | > 100 µM | > 100 µM | > 100 µM | > 100 µM | > 100 µM | > 100 µM | > 100 µM | > 100 µM | > 100 µM | > 100 µM | – | – | – | – | – | – | – | – | – | –
2 | O=C(Nc1ccc(C(F)(F)F)cc1[N+](=O)[O-])C(=O)Nn1c(=S)[nH]c2ccccc2c1=O | > 100 µM | > 100 µM | – | > 100 µM | > 100 µM | – | > 100 µM | > 100 µM | > 100 µM | > 100 µM | – | – | – | – | – | – | – | – | – | –
3 | CC(C)N(CCNc1nc(C(Cl)(Cl)Cl)nc2cc(Cl)ccc12)C(C)C | 3.61 µM | – | 2.73 µM | 2.88 µM | 3.57 µM | 3.39 µM | – | – | – | 3.76 µM | 1.8 µM | 1.15 µM | 1.46 µM | 1.68 µM | 1.54 µM | 1.69 µM | – | – | – | –
4 | OCC1NC(CO)C(O)C1O (stereo not drawn) | > 100 µM | > 100 µM | > 100 µM | > 100 µM | > 100 µM | > 100 µM | > 100 µM | > 100 µM | > 100 µM | > 100 µM | – | – | – | – | – | – | – | – | – | –
5 | O=S1(=O)C[C@H](NCc2ccccc2)[C@H](NCc2ccccc2)C1 | > 100 µM | > 100 µM | > 100 µM | > 100 µM | > 100 µM | > 100 µM | > 100 µM | > 100 µM | > 100 µM | > 100 µM | – | – | – | – | – | – | – | – | – | –
6 | COc1ccc(CCn2ccc(C)n2)c(OC)c1 | > 100 µM | > 100 µM | > 100 µM | > 100 µM | – | > 100 µM | > 100 µM | > 100 µM | > 100 µM | > 100 µM | – | – | – | – | – | – | – | – | – | –
7 | CC=C/C=C/[C@@H]1O[C@](O)([C@H](CC)C(=O)NC/C=C/C=C(\C)[C@@H](OC)[C@@H](C)[C@@H]2O[C@H](/C=C/C=C/C=C(\C)C(=O)c3c(O)cc[nH]c3=O)[C@H](O)[C@@H]2O)[C@H](O)[C@H](O)C1(C)C | – | > 100 µM | > 100 µM | > 100 µM | – | > 100 µM | > 100 µM | > 100 µM | – | – | – | – | – | – | – | – | – | – | – | –
8 | CC(=O)OC/C=C\Cn1ncc(=O)[nH]c1=O | 37.9 µM | 54.9 µM | 36 µM | – | 36 µM | 50.6 µM | – | 37.5 µM | 50.4 µM | 42 µM | – | – | – | – | – | – | – | – | – | –
9 | Fc1ccc(C2CC(c3cccc(Nc4ccncc4)c3)=NN2c2ccccc2)cc1 (stereo not drawn) | 4.91 µM | 6.86 µM | 3.18 µM | 3.75 µM | 8.78 µM | 3.13 µM | 19.9 µM | 2.86 µM | 10.2 µM | 3.21 µM | 2.35 µM | 1.58 µM | 1.99 µM | 2.48 µM | 1.65 µM | 1.71 µM | 2.42 µM | 5.7 µM | 1.45 µM | 3.22 µM
10 | CCOP(=O)(OCC)C(Cc1c[nH]c2ccccc12)C(=O)O (stereo not drawn) | > 100 µM | > 100 µM | > 100 µM | > 100 µM | > 100 µM | > 100 µM | > 100 µM | > 100 µM | > 100 µM | > 100 µM | – | – | – | – | – | – | – | – | – | –
